The target in one assay is mGluR1 (Rattus norvegicus, UniProt P23385). The assay is described as follows: In vitro binding assay with [^18F]FITM using cerebellum homogenate. Also noted: from tissue; host or cells: cerebellum homogenate. The settings on record: previous unpublished data, S4 Fig.
For assay [1], the system named is translocater protein (TSPO). Also noted: method as in PMID 20705143. The settings on record: ipsilateral side of an ischemic rat brain; cited from earlier work.

Molecules are shown by their SMILES.

Data on 2 compounds can be found in publication PMC4468202, “Improved Visualization and Specific Binding for Metabotropic Glutamate Receptor Subtype 1 (mGluR1) Using [^11C]ITMM with Ultra-High Specific Activity in Small-Animal PET” (PLoS ONE, 2015).

Chain of mGluR1 (P23385 19-1199): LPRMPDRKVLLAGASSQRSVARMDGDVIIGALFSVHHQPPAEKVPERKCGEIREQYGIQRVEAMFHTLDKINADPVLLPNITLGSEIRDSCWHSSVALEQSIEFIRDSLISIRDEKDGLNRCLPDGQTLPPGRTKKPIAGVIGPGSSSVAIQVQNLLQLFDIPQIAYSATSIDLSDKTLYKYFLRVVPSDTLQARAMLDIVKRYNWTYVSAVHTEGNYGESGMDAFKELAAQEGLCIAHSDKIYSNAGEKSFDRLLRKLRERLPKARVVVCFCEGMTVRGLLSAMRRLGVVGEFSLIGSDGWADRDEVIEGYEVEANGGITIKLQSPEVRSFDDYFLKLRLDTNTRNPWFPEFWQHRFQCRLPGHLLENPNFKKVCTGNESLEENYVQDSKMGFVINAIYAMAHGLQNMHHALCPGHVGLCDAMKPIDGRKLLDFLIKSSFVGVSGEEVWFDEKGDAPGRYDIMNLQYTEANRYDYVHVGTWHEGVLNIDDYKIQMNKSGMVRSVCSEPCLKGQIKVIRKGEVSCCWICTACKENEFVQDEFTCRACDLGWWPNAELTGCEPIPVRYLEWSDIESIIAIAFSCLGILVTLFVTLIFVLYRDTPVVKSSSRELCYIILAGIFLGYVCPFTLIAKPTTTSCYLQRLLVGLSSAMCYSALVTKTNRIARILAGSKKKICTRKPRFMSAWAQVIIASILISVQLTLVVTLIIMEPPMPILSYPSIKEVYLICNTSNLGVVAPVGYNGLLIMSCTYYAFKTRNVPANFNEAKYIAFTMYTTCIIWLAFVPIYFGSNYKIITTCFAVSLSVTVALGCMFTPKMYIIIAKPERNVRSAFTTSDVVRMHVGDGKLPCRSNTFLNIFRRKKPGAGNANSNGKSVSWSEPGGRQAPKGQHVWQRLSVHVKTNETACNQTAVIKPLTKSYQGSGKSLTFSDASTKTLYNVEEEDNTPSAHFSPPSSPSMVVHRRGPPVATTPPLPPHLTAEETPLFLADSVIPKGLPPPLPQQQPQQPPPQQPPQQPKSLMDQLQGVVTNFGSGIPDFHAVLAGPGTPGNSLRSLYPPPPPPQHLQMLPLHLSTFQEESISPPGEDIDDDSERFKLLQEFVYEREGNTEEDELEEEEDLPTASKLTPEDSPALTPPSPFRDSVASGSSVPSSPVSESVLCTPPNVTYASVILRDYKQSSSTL

As to `CC(C)Nc1cc(-c2csc(N(C)C(=O)c3ccc([18F])cc3)n2)ncn1` [[^18F]FITM, 4-[18F]fluoro-N-[4-[6-(isopropylamino)pyrimidin-4-yl]-1,3-thiazol-2-yl]-N-methylbenzamide], the binding sites entry on mGluR1 is “two binding sites of [^18F]FITM possessing high and low affinities”.

For the compound `Cn1c(=O)n(CC(=O)N([11CH3])Cc2ccccc2)c2nc(-c3ccccc3)ncc21` [[^11C]DAC], in assay [1], the “binding potential, ultra-high SA vs conventional SA” value was “roughly two times higher”.
